According to a melting point compilation (Tetko et al.; mined from patent text by program, amines drawn as free bases though some values may be those of a salt):

For `CC(C)n1c(=O)n(C(=O)NC2CCN(C)CC2)c2ccccc21`, which melting point is on record?
The melting point was 204 to 205 °C.

With `OCc1cnc2c(F)c(F)c(F)cc2c1-c1cccs1` as the compound, how does the melting point read?
The melting point was 126 to 128 °C.

With `c1cncc(-c2cc(Oc3ccc4cccnc4c3)ncn2)c1` as the compound, how does the melting point read?
Its melting point is 155 to 158 °C.

Which melting point does the source give for `COc1ccc(S(=O)(=O)n2c(CCCC(=O)O)cc3nc(Cl)ccc32)c(C)c1` here?
The melting point was 134 to 140 °C.

Which melting point does the source give for `CCCS(=O)(=O)c1nc[nH]n1` here?
The melting point was 116 to 117 °C.

With `COc1ccc(-c2cc(=Nc3c(C)cc(C)cc3C)n(C)c(=NCc3ccccc3)n2C)cc1OC` as the compound, how does the melting point read?
Its melting point is 97 to 100 °C.

Which melting point does the source give for `CC(=O)OCS(=O)(=O)C1=CCC2C3CCC4=CC(=O)C=CC4(C)C3(F)C(O)CC12C` (stereo not given) here?
The melting point was 186 to 187 °C.

For `CCC1C(C)=NN=C(c2ccc(OC)c(OC)c2)c2cc(OC)c(OC(C)C)cc21` (stereo not given), which melting point is on record?
Its melting point is 109 to 111 °C.

With `CC(=O)NC[C@H]1CN(c2cc(F)c(N3CCC(O)(COCC(F)(F)F)CC3)c(F)c2)C(=O)O1` as the compound, how does the melting point read?
Its melting point is 182 to 184 °C.

With `O=C(CCl)NCC(O)(c1ccccc1)c1ccccc1` as the compound, how does the melting point read?
Its melting point is 178 to 180 °C.

With `Fc1ccc(CNC(=S)N2CCc3c([nH]c4ccccc34)C2c2ccc3c(c2)OCO3)cc1` (stereo not given) as the compound, how does the melting point read?
Its melting point is 137 to 139 °C.

Which melting point does the source give for `CN1CCC23CC(=O)CCC2C1Cc1ccccc13` (stereo not given) here?
Its melting point is 164 to 166 °C.

Which melting point does the source give for `CCOC(=O)CN1C(=O)C(C(C)C)N(C(C)=O)C=C1c1ccccc1` (racemic) here?
Its melting point is 96 to 98 °C.

Which melting point does the source give for `CC(=O)Oc1ccccc1C(=O)OCCSS(C)(=O)=O` here?
Its melting point is 90 to 91 °C.

Which melting point does the source give for `CC(C)(C)Nc1c(NCc2cccc(C(F)(F)F)c2)c(=O)c1=O` here?
Its melting point is 237 to 239 °C.

Which melting point does the source give for `NC(=O)Cc1c[nH]c2ncccc12` here?
Its melting point is 180 to 181 °C.

Which melting point does the source give for `C[C@H]1[C@H](O)[C@H](O)C(S(=O)(=O)c2ccccc2)=C[C@H](C)[C@H]1O` here?
Its melting point is 143 to 145 °C.

With `N#Cc1cnc2sccc2c1Cl` as the compound, how does the melting point read?
Its melting point is 100 to 103 °C.

Which melting point does the source give for `CC(C)n1c(=O)c(C(=O)NCC2CCN(CC3(O)CCOCC3)CC2)cc2c(Cl)cccc21` here?
Its melting point is 227 °C.

With `CC(O)COC(c1c(C(C)C)nn2ccccc12)C(C)C` (stereo not given) as the compound, how does the melting point read?
The melting point was 112 °C.

Which melting point does the source give for `Cc1ccccc1NC(=O)Nc1ccc(CC(=O)N[C@@H](CC(C)C)C(=O)O)cc1` here?
Its melting point is 178 to 179 °C.

For `COC(=O)c1cc(O)cc(C(=O)CS(C)=O)c1` (stereo not given), which melting point is on record?
Its melting point is 144 to 150 °C.

For `CCCc1c(C(=O)OCC)c2c3c(ccc2n1C)OC1c2ccc(OC)cc2CCN1C3` (stereo not given), which melting point is on record?
Its melting point is 150 to 151 °C.

Which melting point does the source give for `O=C(O)c1ccc(NC(=O)[C@H](CO)NS(=O)(=O)c2ccc(Cl)cc2)cc1` here?
Its melting point is 231 to 234 °C.

Which melting point does the source give for `Cn1cc(-c2ccccc2[N+](=O)[O-])cn1` here?
Its melting point is 41 to 44 °C.

With `O=C(O)c1cccc(CN2CCC(N3C(=O)Nc4ccccc4C3c3ccccc3)CC2)c1` (stereo not given) as the compound, how does the melting point read?
The melting point was over 250 °C.

For `ClCCCC1(c2ccccc2)OCCO1`, which melting point is on record?
The melting point was 54 to 55.5 °C.

For `NC[C@H]1C=Cc2cc(F)cc(-c3ccccc3Cl)c2O1`, which melting point is on record?
The melting point was 145 to 147 °C.

With `CC(C)Cn1c(C(=O)O)c(-c2ccc(F)cc2)c2cc(OCc3ccccc3)ccc2c1=O` as the compound, how does the melting point read?
The melting point was 236 to 237 °C.

With `CCN1c2ncc(CCc3ccncc3)cc2C(=O)N(C)c2ccc(C#N)nc21` as the compound, how does the melting point read?
The melting point was 149 to 150 °C.

For `COc1cc(C(=O)Nc2cccc3c2CN(C)CC3)cc(OC)c1OC`, which melting point is on record?
Its melting point is 177 to 178 °C.

Which melting point does the source give for `CCCN1CCC(=O)C2=C1CSc1ccc(OC)cc12` here?
The melting point was 108 to 110 °C.

For `CC(C)(C)c1cc(OCC(=O)OCCN2C(C)(C)CC(OC(=O)COc3ccc(O)c(C(C)(C)C)c3)CC2(C)C)ccc1O`, which melting point is on record?
Its melting point is 74 to 77 °C.

Which melting point does the source give for `CC1(C)CCC(=O)c2c1oc(-c1ccncc1)c2-c1ccccc1` here?
The melting point was 156 to 157 °C.

With `COc1cc(Nc2c(C#N)cnc3cc(-c4cc5ccccc5s4)ccc23)c(Cl)cc1Cl` as the compound, how does the melting point read?
The melting point was 269 to 270 °C.

Which melting point does the source give for `COc1ccc(-c2nc(SCC(C)=O)[nH]c2-c2ccc(OC)cc2)cc1` here?
Its melting point is 115 to 118 °C.

With `OCC1OC2CC(O)CC(C2)O1` (stereo not given) as the compound, how does the melting point read?
Its melting point is 146 to 149 °C.

Which melting point does the source give for `CCCNC1=NS(=O)(=O)c2cc(C(=O)O)ccc2N1` here?
Its melting point is over 310 °C.

For `CC(C)(C)OC(=O)NCCc1ccc(Oc2cc(C#N)ccn2)cc1`, which melting point is on record?
The melting point was 92 to 96 °C.

For `CC(C)(C)CC(C)(C)Nc1nc(N2CC3CCC(CC3)C2)nc(C(C)(C)C)n1`, which melting point is on record?
The melting point was 164 to 168 °C.

Which melting point does the source give for `CC(C)(C)c1cc(CCc2cc(F)cc(F)c2NC(=O)NC23CC4CC(CC(C4)C2)C3)cc(C(C)(C)C)c1O` here?
The melting point was 218 to 220 °C.

For `O=C1NC(=S)SC1=Cc1ccnc2ccccc12`, which melting point is on record?
Its melting point is 325 to 328 °C.

For `COC(=O)C(=O)c1ccc(OCCOc2cc3ccccc3cc2O)cc1`, which melting point is on record?
The melting point was 177 to 178 °C.

For `CCCCN1CCC(NC(=O)c2ccc(NCc3ccnc4ccccc34)cc2)CC1`, which melting point is on record?
The melting point was 189 to 190 °C.

For `Cc1cnnc2c(-c3ccc(F)cc3)c(-c3ccncc3)nn12`, which melting point is on record?
The melting point was 202 to 204 °C.

Which melting point does the source give for `CN(C)C=Nc1c(Cl)cc(N=Cc2ccc(N(C)C)c(Br)c2)cc1Cl` here?
The melting point was 140 to 141 °C.

For `CCCC(=O)NN=Cc1ccnc2ccccc12`, which melting point is on record?
Its melting point is 130 °C.

Which melting point does the source give for `O=C(c1ccccc1SSc1ccccc1C(=O)N1CCOCC1)N1CCOCC1` here?
The melting point was 103 to 110 °C.

Which melting point does the source give for `O=C(CO)N[C@H]1CC[C@H](CCN2CCC(c3cccc4c3CCO4)CC2)CC1` here?
Its melting point is 154 °C.

With `O=C1Nc2cc(Cl)ccc2C(=O)C1c1coc2ccccc12` (stereo not given) as the compound, how does the melting point read?
The melting point was 290 °C.
